Measurements from US9387213B2, “Small molecules inhibiting oncoprotein Myc” (Health Research, Inc., priority 2012, dated 2016).

What was measured:
[1] = system: SK-Mel-103 xenografts; assay: Preliminary in vivo testing CBL2.5-01-Ms-1, N77A7 in methylcellulose; design: species or system athymic nude mice; settings: after a week of ip injection, prepared in methylcellulose
Source text: N77A7 was identified in a small molecule library screen for inhibitors of the N-myc oncoprotein, which is involved in the pathogenesis of the childhood tumor neuroblastoma. The molecule is also effective against c-myc, a family member of N-myc that is overexpressed or amplified in a wide variety of tumors, including melanoma. In vitro, the effects of N77A7 on melanoma cells (e.g., SK-Mel-103) closely reflect the effects of myc shRNA on the same cells. In order to determine whether this in vitro effect can translate into an in vivo anti-tumor effect, we tested 50 mg/kg N77A7 administered daily ip against SK-Mel-103 xenografts established in athymic nude mice. […]

[2] = system: HO15.19 cells reconstituted with exogenous C-MYC; assay: Inhibition of C-MYC-dependent proliferation, cell cycle distribution by FACS; assay type: cell-based, rat; settings: 3 μM
Description: In parallel, […] was evaluated for the ability to inhibit C-MYC-dependent proliferation in HO15.19 cells reconstituted with exogenous C-MYC. HO15.19 cells are the only cell line that is capable of continuous proliferation in the absence of any MYC protein expression, a feature that makes this line a reference in the field.

[3] = in vitro; settings: microsomes, pH 7.4; for Percent Remaining 0 min: 0 h; for Percent Remaining 0 min / Percent Remaining 10 min / Percent Remaining 20 min / Percent Remaining 30 min / Percent Remaining 60 min: 1 μM; for Percent Remaining 30 min: 0.5 h; for Percent Remaining 60 min: 1 h
Description: Additionally, several of the N77A7 analogs were subjected to the test for the metabolic stability in human and mouse liver microsomes. Briefly, 1 μM of test compound was incubated with microsomal protein (human liver microsomes: 0.5 mg/mL; mouse liver microsomes 0.5 mg/mL) and buffer (100 mM potassium phosphate, pH 7.4, 5 mM magnesium chloride). The positive control was 5 μM testosterone. The reaction was equilibrated at 37 C in a shaking water bath for 3 to 5 minutes. After equilibration, an aliquot was removed and combined with 50/50 acetonitrile/water containing 0.1% formic acid and internal standard to terminate the reaction. 1 mM NADPH was immediately added and the tube was returned to the water bath. Five sample time points were taken (0, 10, 20, 30, and 60 minutes). Aliquots were removed and combined with 50/50 acetonitrile/water containing 0.1% formic acid and internal standard to terminate the reaction. The samples were mixed for 10 minutes and centrifuged. The supernatant from each sample was diluted (if necessary) and then transferred to vials for analysis by LC-MS/MS for the test compound and internal standard without calibration standards. The percent remaining at each time point was determined by the test compound's peak area response ratio versus the 0 minute sample.

[4] = system: SK-Mel-103 xenografts; assay: SK-Mel-103 xenograft efficacy study CBL2.5-01-Ms-2, N77A7 in Captisol; assay type: in vivo, athymic nude mice
Description: FIG. 9 illustrates the effect of N77A7 on survival of SK-Mel-103 tumor-bearing mice. […] When at least one tumor on the majority of mice reached ˜50 mm^3, mice were randomly divided into treatment groups. Starting on Day 1 of treatment, mice were treated daily by ip injection of either 50 mg/kg N77A7 or the equivalent amount of Captisol vehicle. Mice were followed until tumors reached 1000 mm^3 or tumors ulcerated or 28 days of treatment, whichever came first. The proportion of surviving mice is depicted in the graph. The survival of N77A7 and vehicle control-treated mice was compared using the Log Rank test. p-value<0.05 indicates significance.
FIG. 10 illustrates the effect of Captisol and N77A7 on mouse weight. (A) Mean change in body weight as determined by calculating the % starting weight, which is the weight of a mouse on Day X divided by the weight of the same mouse on Day 1 and multiplied by 100. […] (C)-(D) Changes in mouse weight for individual mice in each treatment group calculated as described in (A).
FIG. 11 illustrates the effect of 50 mg/kg N77A7 on tumor growth. (A) Athymic nude mice were inoculated with 1×10^6 SK-Mel-103 tumor cells in each rear flank. When at least one tumor on a mouse was ˜50 mg for the majority of mice, treatment commenced. Mice were treated once daily ip with 50 mg/kg N77A7 or an equivalent amount of vehicle control (i.e., Captisol). Tumors were measured by digital caliper on Day 1 and then twice per week thereafter. Tumor measurements were made blind to the treatment each mouse received. Data is presented as the mean tumor volume on each measurement day. Comparison of tumor volume between treatment groups was made using unpaired t-tests. P value <0.05 is significant. (B) Same as (A) except data is presented as mean fold tumor growth, which was calculated by dividing the mean tumor volume on Day X by that of the same tumor on Day 1.
FIG. 12 illustrates the effect N77A7 on tumor doubling time and the time to reach 1000 mm^3 Growth curves for each tumor within each treatment group were plotted (tumor volume vs days from start of treatment). Regression analysis using the exponential trendline in Excel was used to generate an equation for each curve. From the equation, the tumor doubling time (A) and the time to reach the experimental endpoint of 1000 mm^3 was calculated. Error bars represent the standard error of the mean and p values were obtained using unpaired, two-sided t-tests.
Animal study protocol CBL2.5-01-Ms-2. N77A7 formulated in Captisol was prepared. Both N77A7 and Captisol vehicle were prepared weekly according to the needs of the study. SK-Mel-103 melanoma cells (1×10^6 cells/inoculation were inoculated into each rear flank of 20 athymic nude (7.5 week old males) on Sep. 11, 2009. Prior to commencement of treatment, mice were randomly assigned to treatment groups with 2 of 4 mice per cage assigned to the Captisol vehicle control group and the other 2 mice to the 50 mg/kg N77A7 group. When at least one tumor per mouse for the majority of mice reached ˜50 mm^3 in tumor volume, treatment commenced. The first day of treatment (Day 1) was Sep. 21, 2009. Administration of N77A7 and vehicle control was performed daily by ip administration of 2.5 mg/ml solution of N77A7 or equivalent amount of vehicle control at 500 μl/25 g mouse body weight. Mouse body weight measurements were performed prior to commencement of treatment and Mondays-Wednesdays-Fridays thereafter. Administration volumes were adjusted during the course of the study based on the latest weight measurements. Treatments were administered. Tumor measurements were performed without prior knowledge of which treatment group each mouse belonged (i.e., blinded to treatment groups). When at least one tumor of a mouse reached 1000 mm^3 or tumor ulceration was evident, mice were euthanized according to the approved IACUC protocol (CBL 1096M). The experiment was completed on Day 18 (Oct. 8, 2009). […]

[5] = 50 mg/kg daily ip in Captisol, necropsy of several mice

With `CCN(CC)c1ccc(/C=N/NC(=O)Cn2nnc(-c3ccccc3)n2)c(O)c1` [Compound N77A7] the peritonitis [1] was “severe peritonitis”, the “HO15.19-C-MYC G2” value ([2]; percent of cells in G2 phase) was 15.39% and the “HO15.19-C-MYC S” value ([2]; percent of cells in S phase) was 34.88%. The “Percent Remaining 0 min” value ([3]; human) was 100%, the “Percent Remaining 10 min” value ([3]; human) was 87% and the “Percent Remaining 20 min” value ([3]; human) was 30%. For the same molecule, the “Percent Remaining 30 min” value ([3]; human) was 1− Percent, the “Percent Remaining 60 min” value ([3]; human) was less than 1.0% and the half-life at 1 µM ([3]; human) was 13.1 min. The microsomal CLint at 1 μM ([3]; human) was 110 µL/min/mg, the “Percent Remaining 0 min” value ([3]; mouse) was 100% and the “Percent Remaining 10 min” value ([3]; mouse) was 25%. The “Percent Remaining 20 min” value ([3]; mouse) was 8.9%, the “Percent Remaining 30 min” value ([3]; mouse) was 4.5% and the “Percent Remaining 60 min” value ([3]; mouse) was less than 1.0%. The half-life at 1 µM ([3]; mouse) was 5.2 min, the microsomal CLint at 1 μM ([3]; mouse) was 270 µL/min/mg and the “treated mice remaining in the study (survival)” value ([4]; 50 mg/kg daily ip in Captisol, after 14 days of treatment, all Captisol-treated mice euthanized, logrank P=0.0083) was 5 of the 10. For the same molecule, the “compound precipitation at necropsy” value [4, 5] was “no signs of compound precipitation within the abdominal cavity”, the peritonitis at necropsy [4, 5] was “no signs of peritonitis” and the “maximum tumor growth inhibition” value ([4]; 50 mg/kg daily ip in Captisol, versus Captisol vehicle) was roughly 45%. The “effect on mouse weight” value ([4]; 50 mg/kg daily ip, 14 consecutive days of treatment) was “did not cause any weight loss”, the “growth delay in reaching the study endpoint (1000 mm3)” value ([4]; 50 mg/kg daily ip, from regression of growth curves, p=0.0004) was 5 days and the “increase of doubling time for tumor growth” value ([4]; 50 mg/kg daily ip, from regression of growth curves, p=0.0157) was 1 days. For the same molecule, the “starting tumors left in the study by Day 14” value ([4]; 50 mg/kg daily ip, control <50% (8/18)) was 80%.
